In patent US20230128972A1, “Anat Inhibitors and Methods of Use Thereof” (Atomwise Inc., priority 2020, published 2023):

Molecular target: T1, aspartate N-acetyltransferase (ANAT) (Homo sapiens, UniProt Q8N9F0)
T1 construct: 6xHis (C); made in house; host or cells: E. coli BL21(DE3)
T1 sequence (Q8N9F0 1-302): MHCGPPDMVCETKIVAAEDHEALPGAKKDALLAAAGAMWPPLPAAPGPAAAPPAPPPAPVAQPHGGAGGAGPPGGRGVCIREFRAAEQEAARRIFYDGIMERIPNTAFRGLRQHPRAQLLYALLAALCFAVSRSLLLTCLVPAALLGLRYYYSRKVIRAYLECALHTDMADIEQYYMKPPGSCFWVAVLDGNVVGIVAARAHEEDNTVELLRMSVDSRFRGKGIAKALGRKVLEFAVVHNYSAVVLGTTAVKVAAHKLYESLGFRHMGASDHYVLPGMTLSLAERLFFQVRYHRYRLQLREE
Test: ANAT in vitro activity assay (DTNB, coenzyme A production)
Assay type: biochemical
Conditions: for Ki: dose-response protocol, competitive inhibition fit, Km for L-aspartate 160 μM; for potency against ANAT: dose-response protocols, in words
Description: The experimental assay was based on a custom protocol developed by the Viola lab described previously (see, e.g., Thangavelu et al., 2017, “Design and optimization of aspartate N-acetyltransferase inhibitors for the potential treatment of Canavan disease,” Bioorganic & Medicinal Chemistry, 25(3), pp. 870-885). Each of the purchased compounds was tested in an initial screen at 1 mM, followed by a second screen of the initial inhibitors at 50 μM.
The challenge of solubilizing and purifying the membrane-associated enzyme ANAT has been addressed through the creation of a fusion construct with maltose binding protein (MBP) as a fusion partner, as described previously. Briefly, aspartate ANAT was expressed with an N-terminal MBP tag in E. coli BL21(DE3) cells. A 6×His-tag was inserted at the C-terminal of the enzyme to facilitate purification. 20 ml LB media was grown overnight from a single colony in the presence of kanamycin at a final concentration of 50 μg/ml at 37° C. The overnight culture was then diluted into 2 L LB media and grown with shaking at 37° C. until the OD600 reached 0.6. Isopropyl β-D-thiogalactopyranoside (IPTG) was then added at a final concentration of 0.1 mM for induction, and cell growth continued at 16° C. for 16-20 hours. The cell culture was harvested by centrifugation at 11,000 rpm for 15 min. The cells were then resuspended in binding buffer consisting of 20 mM potassium phosphate, pH 7.4, 300 mM NaCl, 20 mM imidazole, and 10% glycerol. The cells were lysed by adding lysozyme (50 μg/ml of buffer) and DNAse (5 μg/ml of buffer) in an ultrasonic dismembrator, followed by clarification of the cells by centrifugation at 11,000 rpm to remove the insoluble cell debris. The clarified supernatant was loaded onto a Ni-NTA column and eluted with a 20-300 mM imidazole gradient in the binding buffer using an AKTA chromatography system. The fractions containing active enzyme purified from the Ni-NTA column were pooled and loaded onto a dextrin-Sepharose column for further purification. The MBP-ANAT fusion enzyme was eluted from this column by using a 0-10 mM maltose gradient. SDS-PAGE gel was run to confirm the molecular weight and purity of the enzyme.
ANAT activity was measured by monitoring the production of coenzyme A using 5,5′-dithio-bis-[2-nitrobenzoic acid] (DTNB). […] The increasing absorption at 412 nm was monitored for up to 30 min during the reaction. 10% DMSO was maintained in the first screen while 20% DMSO was used in the second screen to dissolve the insoluble or partially soluble compounds in the assay wells.
Ki was calculated using the competitive inhibition routine within the nonlinear regression module of GraphPad Prism 8.3.0 with the following equation: […]
where Km for L-aspartate was set to 160 μM, and [I] and [S] denote the concentrations of the inhibitor and substrate, respectively.

| SMILES | Ki | potency against ANAT |
| --- | --- | --- |
| Nc1cc(N)nc(SCc2ncc(-c3ccc(F)cc3)o2)n1 [Formula 1, 2-{[5-(p-Fluorophenyl)-1,3-oxazol-2-yl]methylthio}-4,6-pyrimidinediamine] | 8.2 µM | low-micromolar |
| CCOC(=O)c1sc(NC(=O)COC(=O)Cn2c(=O)cnc3ccccc32)cc1C [Formula 2, Ethyl 3-methyl-5-{2-[(2-oxo-1H-quinoxalin-1-yl)acetoxy]acetylamino}-2-thenoate] | 8.5 µM | low-micromolar |
| Cc1nnc(SCc2nnc(-c3c(-c4ccccc4)noc3C)o2)s1 [Formula 3, 5-(5-Methyl-3-phenyl-4-isoxazolyl)-2-[(5-methyl-1,3,4-thiadiazol-2-ylthio)methyl]-1,3,4-oxadiazole] | 9.1 µM | low-micromolar |
| Cc1c(C(=O)O)sc2[nH]c(=O)cc(CSc3nnc(C4CC4)[nH]3)c12 [Formula 4, 4-[(5-Cyclopropyl-4H-1,2,4-triazol-3-ylthio)methyl]-3-methyl-6-oxo-1-thia-7-aza-7H-indene-2-carboxylic acid] | 4.5 µM | low-micromolar |
| O=C(OCCSc1ccc([N+](=O)[O-])c2nonc12)c1ccc(Cl)cc1Cl [Formula 5, 2-(7-Nitro-2,1,3-benzofurazan-4-ylthio)ethyl 2,4-dichlorobenzoate] | 0.91 µM | low-micromolar |
